Reference: patent US7795305B2, “CDDO-compounds and combination therapies thereof” (Board of Regents, The University of Texas System, priority 2000, dated 2010)

How the values were obtained:
GAL4-PPARγ = test: Gal4-PPARγ chimeric protein luciferase transactivation; type: cell-based
Method: To determine if bound CDDO transactivates PPARγ, a Gal4-PPARγ chimeric protein was used to drive the expression of luciferase linked to the DNA binding sequence of GAL4 (FIG. 11B) (Wang et al., 2000). […] All known pharmacological PPARγ ligands had anti-proliferative and differentiating effects only when used at higher (3 or 5 μM)concentrations.

D9 cells, vector control = test: Annexin V / cell number in D9 vector control cells; type: cell-based
Method: (§1) Annexin V staining. Cells were washed in phosphate-buffered saline (PBS) and resuspended in 100 μl of binding buffer containing Annexin V (Roche Diagnostic Corporation, Indianapolis, Ind.). Cells were analyzed by flow cytometry after the addition of propidium iodide (PI). Annexin V binds to those cells that express phosphatidylserine on the outer layer of the cell membrane, and PI stains the cellular DNA of those cells with a compromised cell membrane. This allows for live cells (unstained with either fluorochrome) to be discriminated from apoptotic cells (stained only with annexin V) and necrotic cells (stained with both annexin and PI).
To characterize the correlation between PPARγ and caspase activation, caspase-3 levels in D9 cells transfected with wt-PPARγ were analyzed. Six different single cell-derived clones were treated with 3 μM CDDO or vehicle controls for 5 hrs. Caspase-3 cleavage was analyzed by Western blot. A decrease in pro-caspase-3 with appearance of the cleaved product was readily observed in all clones. The degree of cleavage was higher in PPARγ-transfected than in vector control cells that express endogenous PPARγ. […] These changes correlated with plasma membrane changes: vector control=47.0% annexin V-positive cells; wt-PPARγ-transfected cells=73.3±1.1% annexin V (+), n=6. […] PPARγ-transfected cells were also more sensitive to PPARγ-ligand 15d-PGJ2 (41.00% vs 16.0% annexin (+) cells at 3 μM).
To characterize the correlation between PPARγ and caspase activation, caspase-3 levels in D9 cells transfected with wt-PPARγ were analyzed. Six different single cell-derived clones were treated with 3 μM CDDO or vehicle controls for 5 hrs. Caspase-3 cleavage was analyzed by Western blot. A decrease in pro-caspase-3 with appearance of the cleaved product was readily observed in all clones. The degree of cleavage was higher in PPARγ-transfected than in vector control cells that express endogenous PPARγ. […] These changes correlated with plasma membrane changes: vector control=47.0% annexin V-positive cells; wt-PPARγ-transfected cells=73.3±1.1% annexin V (+), n=6. […]

[1] = test system: Bcl-2 in CD34+ cells of primary AML; test: Bcl-2 expression level in CD34+ cells of primary AML samples; type: cell-based, human
NB4 cells = test: Annexin V staining; type: cell-based, human
Method: as §1
Mechanisms of CDDO-induced apoptosis in leukemia cell lines and in primary AML samples were also determined. The involvement of the death receptor/Fas pathway was studied in NB4 cells. Treatment with 0.5 μM CDDO induced cell surface Fas/CD95 expression at 48 hours (MFI 34.8 vs 24.8 in DMSO-treated cells and 26 in untreated control). At this concentration, 22.3% of cells were annexin V positive compared with 11.4% in DMSO-controls. At 1 μM, 56.3% of cells were apoptotic. Similarly, 1 μM CDDO induced Fas expression in 7/12 AML CD34+ cells (MFI, 22.3±3.5 in DMSO-controls, 40±4.3 in CDDO-treated CD34+ cells, p<0.01).

[2] = test system: human leukemic KBM-3 cells; test: Engraftment of leukemic cells in NOD/Scid mice, FISH; type: in vivo; conditions: 6 mg/kg/day IP for 10 days
Method: The effect of CDDO on engraftment of leukemic cells was further tested in NOD/Scid mice transplanted with 1×10^6 human leukemic KBM-3 cells. Eleven mice were treated with CDDO at 6 mg/kg/day IP (divided in 3 injections per day) for 10 days; a control set of 9 mice received vehicle alone. The engraftment of human leukemic cells was determined by FISH based on the known karyotype of the cells (trisomy 8) at 5 weeks following transplantation. While 10.6±2.7% cells were leukemic in the bone marrow of the control group (range 0.12-21%), only 3±2.4% leukemic cells were found in CDDO-treated mice (range 0.04-12.5%, p=0.016). 5/11 CDDO-treated animals but only ⅛ controls had <1% leukemic cells by FISH analysis.

HL-60 cells = test: Annexin V staining; type: cell-based, human; conditions: 0.1 μM CDDO-Me alone or combined with 1 μM ATRA
Method: as §1
CDDO-Me. CDDO-Me and retinoids synergistically decrease viability and induce differentiation in leukemic cell lines. The inventors tested the Effect of CDDO-Me/ATRA combinations in different leukemic cell lines. […] This was confirmed in HL-60 cells by annexin V staining (17.9 vs 30% positive cells when 0.1 μM of CDDO-Me was combined with 1 μM ATRA). In primary AML, ATRA enhanced CDDO-Me-induced apoptosis in 3/8 samples tested (an example of subG1 flow cytometry in AML sample shown in FIG. 32).

U937 and HL-60 cells = test: Phi-Phi-Lux cleavage with caspase-3 inhibitor Z-DEVD-fmk pre-treatment; type: cell-based, human
Method: Detection of active caspases. The cell-permeable fluorogenic substrate Phi-Phi-Lux-G1D2 was administered to monitor caspase activity according to the manufacturer's recommendations (OncoImmunin, Inc, Kensington, Md.). Briefly, 10^6 cells were resuspended in 5 μL of substrate solution and incubated for 1 hour at 37° C. in the dark. After incubation, cells were washed, and the fluorescence emission was determined using the FL-1 channel of a Becton Dickinson FACScan flow cytometer.
CDDO-Me. […] Effects of CDDO-Me on the cleavage of caspase-3 were analyzed utilizing the fluorogenic substrate of caspase-3 Phi-Phi-Lux.

| Structure (SMILES) | transactivation of GAL4-PPARγ (GAL4-PPARγ) | annexin V-positive cells (D9 cells, vector control; 3 μM (CDDO: 5 hrs)) [%] | cell number (D9 cells, vector control; 3 μM CDDO) | primary AML samples with significantly decreased Bcl-2 expression level in CD34+ cells [1] | annexin V positive cells (NB4 cells; 0.5 μM (11.4% in DMSO-controls)) [%] | apoptotic cells (NB4 cells; 1 μM) [%] | animals with <1% leukemic cells by FISH [2] | leukemic cells in the bone marrow, range [2] | leukemic cells in the bone marrow (FISH) ([2]; 5 weeks after transplantation (control 10.6±2.7%)) [%] | annexin V positive cells (HL-60 cells) [%] | cleavage of Phi-Phi-Lux (U937 and HL-60 cells; CDDO-Me without inhibitor) [%] | cleavage of Phi-Phi-Lux (U937 and HL-60 cells; pre-treatment with 25 μM Z-DEVD-fmk for 1 hour) [%] |
| --- | --- | --- | --- | --- | --- | --- | --- | --- | --- | --- | --- | --- |
| CC1(C)CCC2(C(=O)O)CCC3(C)C(C(=O)C=C4C5(C)C=C(C#N)C(=O)C(C)(C)C5CCC43C)C2C1 (stereo not drawn) [CDDO, 2-cyano-3,12-dioxoolen-1,9-dien-28-oic acid] | transactivates GAL4-PPARγ in a dose-dependent manner | 47.0 | did not change | 9 of 18 | 22.3 | 56.3 | 5/11 | 0.04-12.5% | 3±2.4 | – | – | – |
| COC(=O)[C@]12CCC(C)(C)C[C@H]1[C@H]1C(=O)C=C3[C@@]4(C)C=C(C#N)C(=O)C(C)(C)[C@@H]4CC[C@@]3(C)[C@]1(C)CC2 [CDDO-Me] | – | – | – | – | – | – | – | – | – | 17.9 | 15.1 | 2.7 |
